Results reported in PubChem BioAssay AID2060898 (Molecular Pharmacology Branch, DTP, NCI, 2025).
pIC50: −log10 of the molar value.

Test system: 616215-338-R-J1-PDC complex spheroid viability
Assay: Anticancer human tumor 616215-338-R-J1-PDC patient-derived colon adenocarcinoma cell line growth inhibition [RAS]
Conditions: for pIC50: curve of first compound; for viability, T/C: stronger effect = lower value
Outline: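 Multi-cell-type spheroids: tumor cells plus HUVEC endothelial cells and mesenchymal stem cells. RAS-pathway inhibitors were combined with targeted agents, each dosed in half-log steps down from clinical Cmax, or from 10 microM when Cmax was unknown.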

[1] = second compound 0.000949 µM, first compound 0.0316 µM
[2] = second compound 0.000949 µM, first compound 0.1 µM
[3] = second compound 0.000949 µM, first compound 0.316 µM
[4] = second compound 0.000949 µM, first compound 1 µM
[5] = second compound 0.003 µM, first compound 0.0316 µM
[6] = second compound 0.003 µM, first compound 0.1 µM
[7] = second compound 0.003 µM, first compound 0.316 µM
[8] = second compound 0.003 µM, first compound 1 µM
[9] = second compound 0.00949 µM, first compound 0.0316 µM
[10] = second compound 0.00949 µM, first compound 0.1 µM
[11] = second compound 0.00949 µM, first compound 0.316 µM
[12] = second compound 0.00949 µM, first compound 1 µM
[13] = second compound 0.03 µM, first compound 0.0316 µM
[14] = second compound 0.03 µM, first compound 0.1 µM
[15] = second compound 0.03 µM, first compound 0.316 µM
[16] = second compound 0.03 µM, first compound 1 µM
[17] = second compound 0.0949 µM, first compound 0.0316 µM
[18] = second compound 0.0949 µM, first compound 0.1 µM
[19] = second compound 0.0949 µM, first compound 0.316 µM
[20] = second compound 0.0949 µM, first compound 1 µM
[21] = second compound 0.3 µM, first compound 0.0316 µM
[22] = second compound 0.3 µM, first compound 0.1 µM
[23] = second compound 0.3 µM, first compound 0.316 µM
[24] = second compound 0.3 µM, first compound 1 µM
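Further: spheroids exposed to agents for seven days before viability readout.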
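Wherever viability, T/C is given: 100% = DMSO vehicle control viability.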

## CCN1CCN(Cc2ccc(Nc3ncc(F)c(-c4cc(F)c5nc(C)n(C(C)C)c5c4)n3)nc2)CC1 + CCn1c(-c2cc(N3CCN(C)CC3)cnc2C(C)OC)c2c3cc(ccc31)-c1csc(n1)CC(NC(=O)C1CC1C)C(=O)N1CCCC(N1)C(=O)OCC(C)(C)C2
Second compound 0.000949 µM
  pIC50: < 6.00
Second compound 0.003 µM
  pIC50: 6.16
Second compound 0.00949 µM
  pIC50: 6.95
Second compound 0.03 µM
  pIC50: > 8.50
Second compound 0.0949 µM
  pIC50: > 8.50
Second compound 0.3 µM
  pIC50: > 8.50
Second compound 0.000949 µM, first compound 0.00316 µM
  viability, T/C: 102%
Second compound 0.000949 µM, first compound 0.01 µM
  viability, T/C: 108%
[1]
  viability, T/C: 110%
[2]
  viability, T/C: 123%
[3]
  viability, T/C: 130%
[4]
  viability, T/C: 57.2%
Second compound 0.003 µM, first compound 0.00316 µM
  viability, T/C: 104%
Second compound 0.003 µM, first compound 0.01 µM
  viability, T/C: 112%
[5]
  viability, T/C: 111%
[6]
  viability, T/C: 120%
[7]
  viability, T/C: 75.3%
[8]
  viability, T/C: 38.4%
Second compound 0.00949 µM, first compound 0.00316 µM
  viability, T/C: 82.2%
Second compound 0.00949 µM, first compound 0.01 µM
  viability, T/C: 64%
[9]
  viability, T/C: 59.9%
[10]
  viability, T/C: 51.3%
[11]
  viability, T/C: 49.5%
[12]
  viability, T/C: 26.6%
Second compound 0.03 µM, first compound 0.00316 µM
  viability, T/C: 51%
Second compound 0.03 µM, first compound 0.01 µM
  viability, T/C: 38.1%
[13]
  viability, T/C: 39.4%
[14]
  viability, T/C: 32.5%
[15]
  viability, T/C: 33.4%
[16]
  viability, T/C: 27.5%
Second compound 0.0949 µM, first compound 0.00316 µM
  viability, T/C: 33.2%
Second compound 0.0949 µM, first compound 0.01 µM
  viability, T/C: 32.3%
[17]
  viability, T/C: 26.7%
[18]
  viability, T/C: 25.8%
[19]
  viability, T/C: 34.5%
[20]
  viability, T/C: 29.8%
Second compound 0.3 µM, first compound 0.00316 µM
  viability, T/C: 34.5%
Second compound 0.3 µM, first compound 0.01 µM
  viability, T/C: 32.2%
[21]
  viability, T/C: 30.3%
[22]
  viability, T/C: 33.1%
[23]
  viability, T/C: 35.9%
[24]
  viability, T/C: 25.3%

## C[C@@H](NC(=O)c1ncnc(N)c1Cl)c1ncc(C(=O)Nc2cc(C(F)(F)F)c(Cl)cn2)s1 + CCn1c(-c2cc(N3CCN(C)CC3)cnc2C(C)OC)c2c3cc(ccc31)-c1csc(n1)CC(NC(=O)C1CC1C)C(=O)N1CCCC(N1)C(=O)OCC(C)(C)C2
Second compound 0.000949 µM
  pIC50: 5.06
Second compound 0.003 µM
  pIC50: 5.16
Second compound 0.00949 µM
  pIC50: 5.80
Second compound 0.03 µM
  pIC50: 6.61
Second compound 0.0949 µM
  pIC50: > 7.50
Second compound 0.3 µM
  pIC50: > 7.50
[1]
  viability, T/C: 102%
[2]
  viability, T/C: 104%
[3]
  viability, T/C: 117%
[4]
  viability, T/C: 105%
Second compound 0.000949 µM, first compound 3.16 µM
  viability, T/C: 96.3%
Second compound 0.000949 µM, first compound 10 µM
  viability, T/C: 43.9%
[5]
  viability, T/C: 114%
[6]
  viability, T/C: 129%
[7]
  viability, T/C: 102%
[8]
  viability, T/C: 87.2%
Second compound 0.003 µM, first compound 3.16 µM
  viability, T/C: 66.2%
Second compound 0.003 µM, first compound 10 µM
  viability, T/C: 42.6%
[9]
  viability, T/C: 95.3%
[10]
  viability, T/C: 78%
[11]
  viability, T/C: 72.5%
[12]
  viability, T/C: 61%
Second compound 0.00949 µM, first compound 3.16 µM
  viability, T/C: 35.8%
Second compound 0.00949 µM, first compound 10 µM
  viability, T/C: 21.4%
[13]
  viability, T/C: 58.9%
[14]
  viability, T/C: 62.2%
[15]
  viability, T/C: 42.3%
[16]
  viability, T/C: 41.1%
Second compound 0.03 µM, first compound 3.16 µM
  viability, T/C: 30%
Second compound 0.03 µM, first compound 10 µM
  viability, T/C: 25.1%
[17]
  viability, T/C: 41.9%
[18]
  viability, T/C: 57.1%
[19]
  viability, T/C: 38.5%
[20]
  viability, T/C: 33.2%
Second compound 0.0949 µM, first compound 3.16 µM
  viability, T/C: 23.2%
Second compound 0.0949 µM, first compound 10 µM
  viability, T/C: 16.6%
[21]
  viability, T/C: 36.3%
[22]
  viability, T/C: 35.6%
[23]
  viability, T/C: 39%
[24]
  viability, T/C: 33.7%
Second compound 0.3 µM, first compound 3.16 µM
  viability, T/C: 22.6%
Second compound 0.3 µM, first compound 10 µM
  viability, T/C: 13.2%
